# Experiments:
# Test in all cases: relative viability (nuclei count vs DMSO), 5 days (fraction); higher = more cells survive
# Quizartinib + Navitoclax = compound: CC(C)(C)c1cc(NC(=O)Nc2ccc(-c3cn4c(n3)sc3cc(OCCN5CCOCC5)ccc34)cc2)no1 [Quizartinib] + CC1(C)CCC(c2ccc(Cl)cc2)=C(CN2CCN(c3ccc(C(=O)NS(=O)(=O)c4ccc(N[C@H](CCN5CCOCC5)CSc5ccccc5)c(S(=O)(=O)C(F)(F)F)c4)cc3)CC2)C1 [Navitoclax] (partner 0.5 µM)
# Outline: (§1)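 Each reported value is a median over duplicate plates. It expresses relative viability: treated-well nuclei count divided by vehicle-well nuclei count. Lung cancer cell lines in 1536-well plates were dosed by pin tool a day after seeding, alone with one drug or with a fixed anchor-drug dose plus five library-drug doses (not always all listed) in √10 steps, and nuclei were counted after 5 days.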
# Quizartinib + Bortezomib = compound: CC(C)(C)c1cc(NC(=O)Nc2ccc(-c3cn4c(n3)sc3cc(OCCN5CCOCC5)ccc34)cc2)no1 [Quizartinib] + CC(C)C[C@H](NC(=O)[C@H](Cc1ccccc1)NC(=O)c1cnccn1)B(O)O [Bortezomib] (partner 0.002 µM)
# Outline: as §1
# Quizartinib + Pemetrexed = compound: CC(C)(C)c1cc(NC(=O)Nc2ccc(-c3cn4c(n3)sc3cc(OCCN5CCOCC5)ccc34)cc2)no1 [Quizartinib] + Nc1nc2[nH]cc(CCc3ccc(C(=O)N[C@@H](CCC(=O)O)C(=O)O)cc3)c2c(=O)[nH]1 [Pemetrexed] (partner 0.2 µM)
# Outline: as §1
# YM155 + Phenformin = compound: COCC[n+]1c2c(n(Cc3cnccn3)c1C)C(=O)c1ccccc1C2=O [YM155] + N=C(N)NC(=N)NCCc1ccccc1 [Phenformin] (partner 250 µM)
# Outline: as §1
Cell Line,relative viability (Quizartinib + Navitoclax; first compound 0.001 µM),relative viability (Quizartinib + Navitoclax; first compound 0.003162 µM),relative viability (Quizartinib + Navitoclax; first compound 0.01 µM),relative viability (Quizartinib + Navitoclax; first compound 0.03162 µM),relative viability (Quizartinib + Navitoclax; first compound 0.1 µM),relative viability (Quizartinib + Bortezomib; first compound 0.001 µM),relative viability (Quizartinib + Bortezomib; first compound 0.003162 µM),relative viability (Quizartinib + Bortezomib; first compound 0.01 µM),relative viability (Quizartinib + Bortezomib; first compound 0.03162 µM),relative viability (Quizartinib + Bortezomib; first compound 0.1 µM),relative viability (Quizartinib + Pemetrexed; first compound 0.001 µM),relative viability (Quizartinib + Pemetrexed; first compound 0.003162 µM),relative viability (Quizartinib + Pemetrexed; first compound 0.01 µM),relative viability (Quizartinib + Pemetrexed; first compound 0.03162 µM),relative viability (Quizartinib + Pemetrexed; first compound 0.1 µM),relative viability (YM155 + Phenformin; first compound 0.002 µM),relative viability (YM155 + Phenformin; first compound 0.006325 µM),relative viability (YM155 + Phenformin; first compound 0.02 µM),relative viability (YM155 + Phenformin; first compound 0.06325 µM)
LOU-NH91,0.732,0.766,0.808,0.562,0.832,0.481,0.509,0.538,0.433,0.513,0.394,0.397,0.386,0.377,0.436,0.647,0.783,0.785,0.783
LU99A,0.796,0.8,0.913,0.776,0.383,0.837,1.08,1.3,1.19,1.2,0.206,0.189,0.179,0.189,0.183,0.856,0.883,0.822,0.847
LXF-289,0.804,0.961,0.976,0.948,0.912,0.868,0.955,0.983,0.949,1.03,0.789,0.827,1,0.83,0.867,0.522,0.524,0.506,0.532
NCI-H23,,0.852,0.915,0.773,0.472,,0.937,1.08,0.97,0.888,0.6,0.62,0.639,0.593,0.635,0.735,0.774,0.729,0.634
NCI-H322M,1.1,1.08,1.19,1.37,1.23,1.15,1.26,1.27,1.24,1.15,0.6,0.662,0.639,0.62,0.703,0.775,0.837,0.849,0.852
NCI-H441,0.562,0.567,1.29,0.591,1.05,0.476,0.466,0.451,0.576,1.57,0.261,0.267,0.247,0.255,0.287,0.776,0.848,0.763,0.865
NCI-H460,1,1.09,1.24,,1.13,0.881,0.987,1.24,,0.68,,0.058,0.0614,,0.073,0.518,0.531,0.546,0.477
NCI-H520,1.17,0.982,1.19,0.948,0.888,0.448,0.549,0.736,0.532,0.462,,0.557,0.745,0.714,0.477,0.58,0.535,0.636,0.604
NCI-H596,0.931,0.885,0.985,0.883,0.864,1.15,0.92,1.1,1.19,1.2,0.511,0.475,0.498,0.476,0.459,0.65,0.718,0.861,0.741
NCI-H647,0.77,1.11,1.17,1.04,1.2,0.91,1.08,0.71,0.999,1.29,0.141,0.125,0.221,0.182,0.19,0.49,0.636,0.587,0.491
NCI-H838,1.09,1.06,1.08,1.06,0.815,0.458,0.763,0.65,0.926,0.534,0.244,0.231,0.268,0.257,0.236,0.54,0.625,0.583,0.717
NCI-H1355,0.868,0.921,0.912,1,1,1.07,1.28,1.09,1.25,1.28,0.972,1.03,0.92,1.09,0.935,0.442,0.46,0.493,0.499
NCI-H1437,0.954,0.994,1.04,0.904,0.8,0.354,0.492,0.393,0.49,0.255,0.314,0.302,0.305,0.335,0.32,0.285,0.308,0.257,0.324
NCI-H1650,0.928,1.25,1.35,,1.24,0.139,0.184,0.207,,0.191,0.342,0.398,0.441,,0.381,0.356,0.412,0.484,0.557
NCI-H1651,0.848,0.895,0.963,0.845,0.995,0.801,0.938,1.08,0.888,0.993,0.524,0.594,0.665,0.596,0.59,0.316,0.366,0.326,0.377
NCI-H1666,0.773,0.949,1.06,0.743,0.866,0.738,0.753,0.823,0.511,0.813,0.772,0.822,0.85,0.827,0.914,0.567,0.599,0.578,0.579
